From US20100137266A1, “TREATMENT OF INSULIN RESISTANCE AND DISORDERS ASSOCIATED THEREWITH” (UNIVERSITETET I OSLO, priority 2006, published 2010)

Experiment: Stability in bovine plasma
Type: in vitro ADME
Conditions: 300 μM in citrated bovine plasma, 37° C., 24 h; HPLC detection at 210 nm
Experimental: A stock solution of 22(S)-hydroxycholesterol diglutarate was prepared by adding 50 mg of the compound to a 50 ml volumetric flask, followed by 0.5 ml DMSO and deionised water to 50 ml, giving a final concentration of 1.0 mg/ml. The plasma solution was prepared by adding 0.38 ml of the 22(S)-hydroxycholesterol diglutarate stock solution to 1.62 ml of citrated bovine plasma, giving a final concentration of 300 μM. The citrated bovine plasma was incubated at 37° C. for 24 h. Proteins were discarded from the samples by centrifugal filtration before 50 μl volume of the filtrate was injected with an autosampler onto an analytical column (C18 reverse phase system) The mobile phase consisted of a gradient composed of water and acetonitrile (20→50% from 0 to 10 min, the mobile phase increased from 0.5 ml/min→1.0 ml/min in 10 minutes). Eluted compounds were detected at 210 nm.

CC(C)CCC(OC(=O)CCCC(=O)O)[C@@H](C)C1CCC2C3CC=C4CC(OC(=O)CCCC(=O)O)CCC4(C)C3CCC21C (stereo partly drawn) [22(S)-hydroxycholesterol diglutarate, 22(S)-Hydroxycholesterol Diglutarate]
detection of compound after incubation in plasma: not possible to detect
